Consider four compounds from patent US20260355330A1, “CELL PENETRATING PEPTIDES AND USES THEREOF” (VECTIOPEP OÜ, priority 2022, published 2026).

In one experiment the test system is spleen of BALB/c mice. The experiment is described as follows: In vivo delivery of mRNA with CPPs - reporter levels in the spleen. The note with it: for Efficacy of mRNA delivery into the spleen in vivo / Delivery of mRNA in vivo compared to NF54 and/or NF55: in words; for Efficacy of mRNA delivery into the spleen in vivo: FIG. 5 / Table 5; for Delivery of mRNA in vivo compared to NF54 and/or NF55: comparator NF54 and/or NF55; for Reporter levels in the spleen (RLU): mRNA, tail vein injection, spleens harvested 16 hours after single injection, whole tissue homogenate. Here is the method: FIG. 5: Delivery of mRNA with CPPs in vivo—reporter levels in the spleen. Spleens were harvested post mortem 16 hours post-injection. The reporter levels (RLU) were evaluated from the whole tissue homogenate.
The transfection complexes (CPP/mRNA) were formed using 10 μg of mRNA mixed with each peptide at indicated charge ratios (CRs) in MQ water in a final volume of 100 μl. CRs were calculated theoretically and account for both the positive charges of the peptide and negative charges of the nucleic acid. The transfection complexes (CPP/mRNA and CPP/pDNA) were formed using 50 μg of mRNA mixed with each peptide at indicated charge ratios (CRs) in MQ water in a final volume of 168 μl. The complexes were incubated for 30 minutes at room temperature and then mixed with equal volume of 10% glucose (resulting in a final solution of 5% glucose in a total volume of 200 μl for 10 μg dose groups and 336 μl for 50 μg dose groups) and immediately injected intravenously via the tail vein.
The reporter gene (luciferase) expression levels were evaluated from the tissue homogenate post mortem 16-24 h after single injection.
CPPs and mRNA complexes were injected through the tail vein of BALB/c mice, spleens were harvested 16 hours after the single injection and reporter signal was measured from the whole tissue homogenate (FIG. 5 and Table 5).

The subject of another experiment is CHO-K1 cells. The experiment is described as follows: Delivery of reporter mRNA with CPPs in cell culture (luciferase luminescence 24 h post-transfection). Conditions: for Average RLU/mg (reporter levels post-transfection of mRNA): firefly luciferase mRNA, 0.1 μg per well, charge ratio 3:1, serum containing media, 24 h, RLU normalised to total protein in lysate; for Efficiency of mRNA transfection/delivery: FIG. 1 / Table 2, cell culture. In kind it is cell-based. The procedure: FIG. 1: Delivery of reporter mRNA with CPPs in cell culture—evaluation of reporter levels post-transfection (relative light units normalised to total protein in the cell lysate (RLU/mg)). Naked mRNA treated cells were used as controls and Lipofectamine3000 (LF3000) was used to compare the transfection efficacy with a liposome-based transfection reagent.
Adherent CHO-K1 cells were grown in Dulbecco's Modified Eagle's Medium (DMEM), which were supplemented with 0.1 mM non-essential amino acids, 1.0 mM sodium pyruvate, 100 U/ml penicillin, and […]. For complete media, 10% (final) fetal bovine serum (FBS) was added. Cells were maintained in a humidified incubator at 37 °C, 5% CO2. Cell viability and confluence was assessed daily and the cell density was reduced regularly. For cell counting, we used the CytoSMART cell counter accompanied by 0.4% trypan blue staining prior measurement. The multi-well plates with cell cultures used for experiments were incubated in a humidified incubator at 37 °C, 5% CO2.
For in vitro experiments 0.1 μg of nucleic acid (plasmid DNA (pDNA) or mRNA) was used per 96-well plate well. For CPP/NA complex formation, the diluted NA was mixed with CPP in water. Complexes were formed based on the theoretical charge ratio (CR) of positive charges from the peptide in excess to the negative charges from nucleic acid backbone, at charge ratio 3:1 with peptide in excess. Commercial reagent Lipofectamine3000 (LF3000) was used according to the manufacturer's recommendations for the transfection of adherent cells.
For reporter luminescence (expressed from firefly luciferase encoding mRNA or plasmid pDNA) assessment in adherent cell culture, 10,000 cells per 96-well plate well were seeded in 100 μl of media one day prior to transfection. Shortly before transfection, cell media was replaced with 100 μl of serum containing (10% foetal bovine serum) DMEM media. CPPs and mRNA or pDNA were mixed at a charge ratio 3:1 in ultrapure water and incubated at room temperature before addition to cells in serum containing media. Cells were transfected with 0.1 μg of mLuc per well.
24 hours post-transfection, the media was aspirated, cells were washed with 1×PBS, and 30 μl of lysis buffer (0.1% Triton X100 in 1×PBS) was added. Cells were incubated with lysis buffer for 20 min. to lyse the cells. From the lysate, 20 μl was transferred to a black frame white well 96-well plate for luminescence measurement after addition of substrate luciferin (PerkinElmer) in buffer. The luminescence signal was detected with GloMax® 96 microplate luminometer equipped with GloMax® 1.9.2 software (Promega). RLU values were converted to RLU/mg by normalization to total protein in cell lysate, reflecting total number of cells. For protein detection, a Pierce™ BCA Protein Assay Kit was used.
The present inventors have previously reported CPPs developed from the NickFect (NF) and PepFect (PF) families for plasmid (pDNA), siRNA and miRNA delivery (see, e.g. WO 2020/144317, WO 2010/039088 and WO 2012/113846). With the emergence of mRNA-based therapeutics, it was decided to investigate peptides for their ability to deliver mRNA. It was assumed that CPPs that are efficient for siRNA and miRNA delivery, e.g. histidine containing CPPs (Porosk et. al. (2019)), may be good candidates for the delivery of mRNA. Therefore, CPPs from each main family (NF55-, PF14- and NF70-derived CPPs) were tested for mRNA delivery/transfection. Naked mRNA treated and untreated cells were used as control groups. LF3000 was used to compare the transfection efficacy of liposome-based transfection reagents with the CPPs (FIG. 1).

Positions of bridges follow the written chain, without caps; N, C: chain ends. Non-standard residues stand in square brackets, D forms with d. Residues, ends and D or L forms follow the SMILES beside them. Chains are numbered I, II in the order given. *: point of attachment. Stearoyl = CCCCCCCCCCCCCCCCCC(=O)*; Palmitoyl = CCCCCCCCCCCCCCCC(=O)*; Dab = NCC[C@H](N)C(=O)O

Regarding `CCCCCCCCCCCCCCCCCC(=O)N[C@@H](C)C(=O)NCC(=O)N[C@@H](Cc1ccc(O)cc1)C(=O)N[C@@H](CC(C)C)C(=O)N[C@@H](CC(C)C)C(=O)NCC(=O)NCCC[C@H](N)C(=O)N[C@H](C(=O)N[C@@H](CC(N)=O)C(=O)N[C@@H](CC(C)C)C(=O)N[C@@H](CCCCN)C(=O)N[C@@H](C)C(=O)N[C@@H](CC(C)C)C(=O)N[C@@H](C)C(=O)N[C@@H](C)C(=O)N[C@@H](CC(C)C)C(=O)N[C@@H](C)C(=O)N[C@@H](C)C(=O)N[C@@H](CCCCN)C(=O)N[C@H](C(=O)N[C@@H](CC(C)C)C(N)=O)[C@@H](C)CC)[C@@H](C)CC` [NF54], in the experiment with spleen of BALB/c mice, the “Efficacy of mRNA delivery into the spleen in vivo” value (“Efficacy” for short) was “delivered mRNA into the spleen in vivo with high efficacy”, the “Delivery of mRNA in vivo compared to NF54 and/or NF55” value is “good improvement in mRNA delivery in vivo over NF55” and the “Reporter levels in the spleen (RLU)” value is reported as 225 675 RLU. Further, the “Average RLU/mg (reporter levels post-transfection of mRNA)” value (shortened to “Average RLU/mg”) in the experiment with CHO-K1 cells is on record as 2 160 000 000 RLU/mg. For the same compound, the “Efficiency of mRNA transfection/delivery” value with CHO-K1 cells (in words) is “the most efficient”. In the experiment on CHO-K1 cells (in words, comparator NF55), the “Delivery of mRNA compared to NF55” value is given as “significantly improved delivery of mRNA over NF55”.
In the case of `CCCCCCCCCCCCCCCCCCCC(=O)N[C@@H](C)C(=O)NCC(=O)N[C@@H](Cc1ccc(O)cc1)C(=O)N[C@@H](CC(C)C)C(=O)N[C@@H](CC(C)C)C(=O)NCC(=O)NCCC[C@H](N)C(=O)N[C@H](C(=O)N[C@@H](CC(N)=O)C(=O)N[C@@H](CC(C)C)C(=O)N[C@@H](CCCCN)C(=O)N[C@@H](C)C(=O)N[C@@H](CC(C)C)C(=O)N[C@@H](C)C(=O)N[C@@H](C)C(=O)N[C@@H](CC(C)C)C(=O)N[C@@H](C)C(=O)N[C@@H](CCCCN)C(=O)N[C@@H](C)C(=O)N[C@H](C(=O)N[C@@H](CC(C)C)C(N)=O)[C@@H](C)CC)[C@@H](C)CC` [NF410], the “Reporter levels in the spleen (RLU)” value in the experiment with spleen of BALB/c mice is given as 36 670 RLU. In addition, the “Average RLU/mg” value in the experiment with CHO-K1 cells is recorded as 1 080 000 000 RLU/mg. In the experiment with CHO-K1 cells (in words), the “Efficiency of mRNA transfection/delivery” value is reported as “the most efficient”.
For `CCCCCCCCCCCCCCCC(=O)N[C@@H](C)C(=O)NCC(=O)N[C@@H](Cc1ccc(O)cc1)C(=O)N[C@@H](CC(C)C)C(=O)N[C@@H](CC(C)C)C(=O)NCC(=O)NCC[C@H](N)C(=O)N[C@@H](CC(C)C)C(=O)N[C@@H](CCCCN)C(=O)N[C@@H](C)C(=O)N[C@@H](CC(C)C)C(=O)N[C@@H](C)C(=O)N[C@@H](C)C(=O)N[C@@H](CC(C)C)C(=O)N[C@@H](C)C(=O)N[C@@H](CCCCN)C(=O)N[C@@H](C)C(=O)N[C@H](C(=O)N[C@@H](CC(C)C)C(N)=O)[C@@H](C)CC` [NF425] (I: H-[Dab]LKALAALAKAIL-NH2 / II: Palmitoyl-AGYLLG; amide I:1-II:C), in the experiment on spleen of BALB/c mice, the “Efficacy” value was “delivered mRNA into the spleen in vivo with high efficacy” and the “Reporter levels in the spleen (RLU)” value is reported as 209 700 RLU. In the experiment on CHO-K1 cells, the “Average RLU/mg” value is 106 000 000 RLU/mg.
As for `CCCCCCCCCCCCCCCCCC(=O)N[C@@H](C)C(=O)NCC(=O)N[C@@H](Cc1ccc(O)cc1)C(=O)N[C@@H](CC(C)C)C(=O)N[C@@H](CC(C)C)C(=O)NCC(=O)NCC[C@H](N)C(=O)N[C@@H](CC(C)C)C(=O)N[C@@H](CCCCN)C(=O)N[C@@H](C)C(=O)N[C@@H](CC(C)C)C(=O)N[C@@H](C)C(=O)N[C@@H](C)C(=O)N[C@@H](CC(C)C)C(=O)N[C@@H](C)C(=O)N[C@@H](C)C(=O)N[C@@H](CCCCN)C(=O)N[C@H](C(=O)N[C@@H](CC(C)C)C(N)=O)[C@@H](C)CC` [NF436] (I: H-[Dab]LKALAALAAKIL-NH2 / II: Stearoyl-AGYLLG; amide I:1-II:C), in the experiment on spleen of BALB/c mice, the “Efficacy” value is “highest reporter levels after mRNA delivery into the spleen in vivo”; the “Delivery of mRNA in vivo compared to NF54 and/or NF55” value is “significantly improved delivery of mRNA in vivo over both NF54 and NF55”; the “Reporter levels in the spleen (RLU)” value was 825 783 RLU. Further, the “mRNA in vivo spleen delivery efficiency relative to NF70” value in the experiment with spleen of BALB/c mice (vs NF70, 16 h post-injection) is 100 times. For the same compound, in the experiment with spleen of BALB/c mice (vs PF1452, 16 h post-injection), the “mRNA in vivo spleen delivery efficiency relative to PF1452” value is reported as 43 times. Moreover, in the experiment on CHO-K1 cells, the “Average RLU/mg” value is 380 000 000 RLU/mg.
